Data: ChEMBL document CHEMBL1201862, “PubChem BioAssay data set” (2004)
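Growth conditions: 96-well plates. Treatment: test compound, 48 hours, 5 concentrations. Analysis: linear interpolation between bracketing concentrations; unreached endpoints set to highest concentration. Here, GI50 denotes the concentration required for 50% inhibition of growth.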 The source made the active and inactive calls. No stated cut-off is given here; in the data, active = GI50 up to about 1.1 µM and inactive = higher.

Assays:
Experiment in all cases: NCI tumour cell line growth inhibition, 48 h
A549 = tested on: A549
BT-549 = tested on: BT-549
CAKI-1 = tested on: CAKI-1
EKVX = tested on: EKVX
HCC 2998 = tested on: HCC 2998
HL-60 = tested on: HL-60
HOP-92 = tested on: HOP-92
KM12 = tested on: KM12
MCF7 = tested on: MCF7
MDA-MB-231 = tested on: MDA-MB-231
NCI-H23 = tested on: NCI-H23
NCI-H522 = tested on: NCI-H522
NCI/ADR-RES = tested on: NCI/ADR-RES
OVCAR-3 = tested on: OVCAR-3
PC-3 = tested on: PC-3
RXF 393 = tested on: RXF 393
SF-268 = tested on: SF-268
SF-539 = tested on: SF-539
SK-MEL-28 = tested on: SK-MEL-28
UO-31 = tested on: UO-31

Measured: GI50

O=C(O)C(O)C(O)C(O)C(=O)CO (stereo not given)
inactive: A549 > 100 µM | BT-549 > 100 µM | CAKI-1 > 100 µM | EKVX > 100 µM | HCC 2998 > 100 µM | HL-60 > 100 µM | HOP-92 > 100 µM | KM12 > 100 µM | MCF7 > 100 µM | MDA-MB-231 > 100 µM | NCI-H23 > 100 µM | NCI-H522 > 100 µM | NCI/ADR-RES > 100 µM | OVCAR-3 > 100 µM | PC-3 > 100 µM | RXF 393 > 100 µM | SF-268 > 100 µM | SF-539 > 100 µM | SK-MEL-28 > 100 µM | UO-31 > 100 µM

ClCCCN1CCN(CCCl)CC1
inactive: A549 110 µM | BT-549 124 µM | CAKI-1 15.2 µM | EKVX 352 µM | HCC 2998 346 µM | HL-60 4.51 µM | HOP-92 105 µM | KM12 552 µM | MCF7 65.5 µM | MDA-MB-231 324 µM | NCI-H23 69.8 µM | NCI-H522 121 µM | NCI/ADR-RES 127 µM | OVCAR-3 167 µM | PC-3 383 µM | RXF 393 166 µM | SF-268 57.3 µM | SF-539 35.6 µM | SK-MEL-28 491 µM | UO-31 109 µM

O=C1C(N2CCN(CCOCCO)CC2)=C(Cl)C(=O)c2ncccc21
inactive: A549 > 10 µM | BT-549 4.89 µM | CAKI-1 17.3 µM | EKVX 19.6 µM | HCC 2998 > 10 µM | HL-60 3.06 µM | HOP-92 2.62 µM | KM12 > 10 µM | MCF7 3.78 µM | MDA-MB-231 19.2 µM | NCI-H23 20.3 µM | NCI-H522 2.08 µM | NCI/ADR-RES 37.4 µM | OVCAR-3 18.5 µM | PC-3 20.7 µM | RXF 393 20 µM | SF-268 20.6 µM | SF-539 21.1 µM | SK-MEL-28 22.2 µM | UO-31 17.7 µM

COc1ccc2nc(-c3ccc(N)cc3)sc2c1
inactive: A549 68.1 µM | BT-549 > 100 µM | CAKI-1 > 100 µM | EKVX 32.1 µM | HCC 2998 42 µM | HL-60 47.5 µM | HOP-92 > 100 µM | KM12 22.3 µM | MCF7 > 100 µM | MDA-MB-231 81.8 µM | NCI-H23 > 100 µM | NCI-H522 23.6 µM | NCI/ADR-RES > 100 µM | OVCAR-3 > 100 µM | PC-3 48 µM | RXF 393 > 100 µM | SF-268 63.2 µM | SF-539 > 100 µM | SK-MEL-28 > 100 µM | UO-31 29.4 µM
